In ChEMBL document CHEMBL1201862, “PubChem BioAssay data set” (2004):
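1) Cells in 96-well plates. 2) Compound, 48 h, 5 concentrations. 3) Linear interpolation between surrounding doses. 4) Unreached endpoint = highest concentration. GI50 is the concentration that inhibits growth by half.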 Active and inactive are the calls of the source. Rule as the data show it: active = GI50 up to about 1.1 µM and inactive = higher. Where a SMILES comes first, the peptide text is derived from it. The star is where a group is joined. Cbz = O=C(OCc1ccccc1)*; Bn = c1ccc(C*)cc1

Columns and labels:
Assay in all cases: NCI-60 cell line screen, 48 h
HT-29 = test system: HT-29
T47D = test system: T47D
Malme-3M = test system: Malme-3M
SR = test system: SR
TK-10 = test system: TK-10
BT-549 = test system: BT-549
HCT-116 = test system: HCT-116
CAKI-1 = test system: CAKI-1
DU-145 = test system: DU-145
A549 = test system: A549
K562 = test system: K562
NCI/ADR-RES = test system: NCI/ADR-RES
UO-31 = test system: UO-31
CCRF-CEM = test system: CCRF-CEM
NCI-H460 = test system: NCI-H460
A498 = test system: A498
Hs-578T = test system: Hs-578T
786-0 = test system: 786-0
SF-268 = test system: SF-268
NCI-H226 = test system: NCI-H226

| SMILES | GI50 (HT-29) | GI50 (T47D) | GI50 (Malme-3M) | GI50 (SR) | GI50 (TK-10) | GI50 (BT-549) | GI50 (HCT-116) | GI50 (CAKI-1) | GI50 (DU-145) | GI50 (A549) | GI50 (K562) | GI50 (NCI/ADR-RES) | GI50 (UO-31) | GI50 (CCRF-CEM) | GI50 (NCI-H460) | GI50 (A498) | GI50 (Hs-578T) | GI50 (786-0) | GI50 (SF-268) | GI50 (NCI-H226) |
| --- | --- | --- | --- | --- | --- | --- | --- | --- | --- | --- | --- | --- | --- | --- | --- | --- | --- | --- | --- | --- |
| CCCCN(CC)c1nc(C)nc2c1c(C)c(C)n2-c1c(C)cc(C)cc1C [ANTALARMIN] | 10.5 µM (inactive) | 10.7 µM (inactive) | 15.9 µM (inactive) | 8.45 µM (inactive) | 17.4 µM (inactive) | 19.7 µM (inactive) | 10.1 µM (inactive) | 13.9 µM (inactive) | 16.6 µM (inactive) | 14.2 µM (inactive) | 12.5 µM (inactive) | 13.6 µM (inactive) | 14.7 µM (inactive) | 11.3 µM (inactive) | 13.2 µM (inactive) | 16.9 µM (inactive) | 16.9 µM (inactive) | 16.5 µM (inactive) | 17.4 µM (inactive) | 14.8 µM (inactive) |
| CC(C)(C)c1cc(C(=O)/C=C/c2ccc(C(=O)O)cc2)cc(C(C)(C)C)c1 | 3.05 µM (inactive) | 5.56 µM (inactive) | 1.42 µM (inactive) | 2.4 µM (inactive) | 3.37 µM (inactive) | 2.21 µM (inactive) | 2.73 µM (inactive) | 3.86 µM (inactive) | 2.77 µM (inactive) | 2.07 µM (inactive) | 3.21 µM (inactive) | 2.42 µM (inactive) | 5.47 µM (inactive) | 2.91 µM (inactive) | 1.94 µM (inactive) | 1.92 µM (inactive) | 1.42 µM (inactive) | 4.09 µM (inactive) | 2.18 µM (inactive) | 1.53 µM (inactive) |
| COc1cc(OC)c2nc(C)c3c(c2c1)OCC3 | > 100 µM (inactive) | > 100 µM (inactive) | > 100 µM (inactive) | > 100 µM (inactive) | > 100 µM (inactive) | > 100 µM (inactive) | 80.7 µM (inactive) | 19.8 µM (inactive) | > 100 µM (inactive) | > 100 µM (inactive) | > 100 µM (inactive) | > 100 µM (inactive) | > 100 µM (inactive) | > 100 µM (inactive) | > 100 µM (inactive) | > 100 µM (inactive) | 47.4 µM (inactive) | 61.1 µM (inactive) | 47.2 µM (inactive) | > 100 µM (inactive) |
| O=CC1C(Cl)=Nc2nc3ccccc3n2C1c1ccc([N+](=O)[O-])cc1 (configuration not stated) | – | 1.57 µM (inactive) | 8.13 µM (inactive) | 2.16 µM (inactive) | 4.54 µM (inactive) | < 0.01 µM (active) | 3.73 µM (inactive) | 3.09 µM (inactive) | 4.74 µM (inactive) | 25.2 µM (inactive) | 1.8 µM (inactive) | 40.5 µM (inactive) | 3.88 µM (inactive) | 3.11 µM (inactive) | 31.1 µM (inactive) | 24.7 µM (inactive) | 57.7 µM (inactive) | 4.3 µM (inactive) | 6.84 µM (inactive) | 3.33 µM (inactive) |
| COC(=O)C(Cc1ccc(O)cc1)NC(=O)C(COCc1ccccc1)NC(=O)OCc1ccccc1 (configuration not stated) (Cbz-Ser(Bn)-Tyr-OMe; configuration not given here) | 15.1 µM (inactive) | 17.7 µM (inactive) | 21.3 µM (inactive) | > 100 µM (inactive) | 20 µM (inactive) | 72.3 µM (inactive) | 20.9 µM (inactive) | 20.2 µM (inactive) | 17.3 µM (inactive) | 19.4 µM (inactive) | > 100 µM (inactive) | 19.6 µM (inactive) | 21.9 µM (inactive) | 71.4 µM (inactive) | 4.13 µM (inactive) | 26.3 µM (inactive) | 24.6 µM (inactive) | – | 17.5 µM (inactive) | 20.1 µM (inactive) |
| Nc1c2c(=O)[nH]c(=O)c2c(N)c2c(=O)c3ccccc3c(=O)c12 | 0.977 µM (active) | 3.94 µM (inactive) | 0.222 µM (active) | 2.74 µM (inactive) | 9.68 µM (inactive) | 1.99 µM (inactive) | 4.6 µM (inactive) | 3.5 µM (inactive) | 1.56 µM (inactive) | 0.897 µM (active) | 3.02 µM (inactive) | 2.11 µM (inactive) | 3.81 µM (inactive) | 2.93 µM (inactive) | 0.869 µM (active) | 1.12 µM (inactive) | 2.62 µM (inactive) | 2.69 µM (inactive) | 2.65 µM (inactive) | 1.85 µM (inactive) |
| Cc1[nH]nc(-c2ccon2)c1N=O | 18.2 µM (inactive) | 25.1 µM (inactive) | 20.7 µM (inactive) | 10 µM (inactive) | 18.7 µM (inactive) | 18.6 µM (inactive) | 23.1 µM (inactive) | 25.8 µM (inactive) | 21.4 µM (inactive) | 23.7 µM (inactive) | 18.5 µM (inactive) | 19.8 µM (inactive) | 19.8 µM (inactive) | – | 36.1 µM (inactive) | > 100 µM (inactive) | 26.9 µM (inactive) | 20.4 µM (inactive) | 20 µM (inactive) | 14.6 µM (inactive) |
| O=C(O)CN1C(=O)OC(c2ccccc2)C1=O (configuration not stated) | > 100 µM (inactive) | > 100 µM (inactive) | > 100 µM (inactive) | > 100 µM (inactive) | > 100 µM (inactive) | > 100 µM (inactive) | > 100 µM (inactive) | > 100 µM (inactive) | > 100 µM (inactive) | > 100 µM (inactive) | > 100 µM (inactive) | > 100 µM (inactive) | > 100 µM (inactive) | > 100 µM (inactive) | > 100 µM (inactive) | > 100 µM (inactive) | > 100 µM (inactive) | > 100 µM (inactive) | > 100 µM (inactive) | > 100 µM (inactive) |
| COc1cccc(Nc2nc(-c3cccs3)nc3ccc(Br)cc23)c1 | > 100 µM (inactive) | > 100 µM (inactive) | 72.9 µM (inactive) | 1.48 µM (inactive) | 36.7 µM (inactive) | > 100 µM (inactive) | 50.5 µM (inactive) | 33.7 µM (inactive) | > 100 µM (inactive) | 76.4 µM (inactive) | > 100 µM (inactive) | 40.5 µM (inactive) | > 100 µM (inactive) | 0.0101 µM (active) | 25.6 µM (inactive) | > 100 µM (inactive) | > 100 µM (inactive) | 33.3 µM (inactive) | 41.8 µM (inactive) | 78 µM (inactive) |
